Like-named read-outs stand apart in the source and are kept apart here.
Tests used:
sugar beet leaves = settings: amorphous wax surface; cited from earlier work
kohlrabi leaves = settings: fine crystalline wax surface; cited from earlier work
[1] = cited from earlier work
[2] = cited from earlier work; remark: listed apart in the source
[3] = cited from earlier work; remark: listed apart in the source
[4] = Filter paper test: ten 10-ml water washings, UV analysis of AI washed through; format: physicochemical
Text: All of the polymers in this set of experiments were combined with the AI at a 70% AI by weight to 30% polymer by weight concentrations. […] The filter paper samples were applied to a slightly wet Buchner funnel to set the paper evenly and then ten 10-ml aliquots of de-ionized (DI) water were suctioned through the filter paper. Ultraviolet light (UV) analysis for each of the 10-ml fractions was used to determine the absorption of the AI (264 nm) washed through the filter paper and recorded as absorption versus each individual 10-ml wash.
The control for these systems was evaluated by placing methylene chloride solutions of the AI alone or the polymer alone onto the filter paper, drying overnight, and washing with ten 10-ml aliquots of DI water.
The AI was dry ground (mortar and pestle) with urea-formaldehyde flower foam as the cage material [commercial product (Foliage Fresh)] where the ratio of AI to flower foam was 70%/30% by weight. This mixture then was tumbled-coated with an organic solvent solution of a hydrophobic polymer (paraffin wax/hexane; polystyrene/toluene; silicone oil/toluene) in a round bottom flask. […] Small amounts (0.07 g) of the powder were placed on the filter paper and subsequently washed with ten 10-ml aliquots of DI water and analyzed in a similar manner as previously described.
Liquid samples of the AI-polymer combinations and AI control samples were applied to filter paper (Whatman #2) and dried for 24 hours at room temperature. The filter paper containing the AI-polymer combination or the AI control samples were placed in a Buchner funnel under water aspiration vacuum conditions, while ten 10-ml aliquots of water were applied to the top of the filter paper containing the AI-polymer or AI control material, which was then sucked through the filter paper and collected in the receiving flask that holds the funnel-vacuum attachment.
After each 10-ml aliquot of water was suctioned through the filter paper containing the sample, the suctioned solution then was removed and analyzed with a UV spectrometer for any AI that went through the water washing process. The ten 10-ml sequential washings were a simulation of how an AI applied to soil would remain on the soil and migrate through the soil under a rain environmental exposure condition.
Dry 100% solid samples were placed on the filter paper directly and subsequently washed with ten 10-ml aliquots in a similar manner as the liquid samples that were dried after placement on the filter paper.
Various concentrations of the AI's were dissolved in water or water and a co-solvent and analyzed at 254 nm or other UV/visible regions of the spectrum in order to establish a standard calibration curve of absorbance versus AI concentration.

[5] = Soil column test: topsoil column washed with ten 10-ml aliquots of water; format: physicochemical
Experimental: The soil column was prepared by cutting off the tip of a 15 ml VWR brand CAT, No. 20171-036 polypropylene centrifuge tube leaving approximately a ⅛-inch opening, which was filled with cotton to prevent the soil from pouring out the bottom. The cotton block was 0.5-inch thick, which held unpacked 3 inches of Nature's topsoil from the Michigan Peat Co., (Oakland Nursery). The topsoil was sieved ten times through a #7 metal screen sieve to remove large debris before filling the tubes.
A 50-μl sample of the mixture was applied to the filter paper and dried while a 200-μl sample was applied to the top of the soil columns and dried before washing with ten 10-ml aliquots of water.

[6] = Table 26, USDA Pesticide Properties Database

O=C(O)CNCP(=O)(O)O [Glyphosate]
capability to penetrate leaf surfaces (sugar beet leaves): very little capability to penetrate leaf surfaces
capability to penetrate leaf surfaces (kohlrabi leaves): very little capability to penetrate leaf surfaces

c1ccc2[nH]c(-c3cscn3)nc2c1 [Thiabendazole]
KOC ([1]; Tables 21-25): 2500
Water Solubility [2]: 30 µg/mL
Log P [3]: 2.39

CC(C)N.O=C(O)COc1ccc(Cl)cc1Cl [2,4-D Amine Salt]
number of 10-ml water washes to pass through / be depleted from the filter paper [4]: 1-2 washes
controlled-release properties (in words) ([4]; filter paper, 10-ml aliquots of water): no control release capabilities
% released ([4]; filter paper, 10-ml water washing 1): 94%
% released ([4]; filter paper, 10-ml water washing 1, listed as 2,4-D Salt): 86%
% released ([4]; filter paper, 10-ml water washing 2): 6%
% released ([4]; filter paper, 10-ml water washing 2, listed as 2,4-D Salt): 14%
% released ([4]; filter paper, 10-ml water washing 3): 0%
% released ([4]; filter paper, 10-ml water washing 4): 0%
% released ([4]; filter paper, 10-ml water washing 5): 0%
% released ([4]; filter paper, 10-ml water washing 6): 0%
% released ([4]; filter paper, 10-ml water washing 7): 0%
% released ([4]; filter paper, 10-ml water washing 8): 0%
% released ([4]; filter paper, 10-ml water washing 9): 0%
% released ([4]; filter paper, 10-ml water washing 10, * = not all released after 10 washings): 0%
R (rating factor, number of washings to deplete the AI) ([4]; filter paper, ten 10-ml water washings): 2
% released ([5]; 10-ml water washing 1): 32%
% released ([5]; 10-ml water washing 2): 26%
% released ([5]; 10-ml water washing 3): 20%
% released ([5]; 10-ml water washing 4): 13%
% released ([5]; 10-ml water washing 5): 9%
% released ([5]; 10-ml water washing 6): 0%
% released ([5]; 10-ml water washing 7): 0%
% released ([5]; 10-ml water washing 8): 0%
% released ([5]; 10-ml water washing 9): 0%
% released ([5]; 10-ml water washing 10): 0%
R (rating factor, number of washings to deplete the AI) ([5]; ten 10-ml water washings): 5

COc1c(Cl)ccc(Cl)c1C(=O)O [Dicamba]
KOC [1, 6]: 2 mg/g
KOC ([1]; Tables 21-25): 12
Water Solubility [2]: 250000 µg/mL
Log P [3]: −1.88

CCCCN(C)C(=O)Nc1ccc(Cl)c(Cl)c1 [Neburon]
KOC ([1]; Tables 21-25): 2500
Log P [3]: 3.8

CON(C)C(=O)Nc1ccc(Cl)c(Cl)c1 [Linuron]
KOC [1, 6]: 400 mg/g
KOC ([1]; Tables 21-25): 620
Water Solubility [2]: 63.8 µg/mL

CN(C)C(=O)Nc1ccccc1 [Fenuron]
KOC ([1]; Tables 21-25): 42
Water Solubility [2]: 3850 µg/mL
Log P [3]: 0.98
